Laboratory results as given in patent US10793530B2, “Benzylaminopyrazinylcyclopropanecarboxylic acids, pharmaceutical compositions and uses thereof” (Boehringer Ingelheim International GmbH, priority 2017, dated 2020).
Converted amounts (≈) assume the structure as drawn.

Target: human GPR40 receptor (Homo sapiens, UniProt O14842)
Experiment: IP1 accumulation measurements using the IPOne assay system
Assay type: cell-based
Conditions: 1321N1 cells stably expressing human GPR40 receptor; stimulated 1 h at 37° C.
Protocol: IP1 is assayed according to the manufacturers description (Cisbio Bioassays, France). In brief, the assay is started by substitution of the culture medium by stimulation buffer (Hepes 10 mM, CaCl2 1 mM, MgCl2 0.5 mM, KCl 4.2 mM, NaCl 146 mM, glucose 5.5 mM and LiCl 50 mM, pH 7.4). Cells are stimulated for 1 h at 37° C., 5% CO2 by addition of the compounds that are diluted in stimulation buffer containing LiCl. Assays are stopped by adding HTRF-conjugates (IP1-d2 and Anti-IP1 cryptate Tb) and lysis buffer, provided by the manufacturer. After an incubation time of 1 h at room temperature plates are measured using an EnVision™, Perkin Elmer. The obtained fluorescence ratios at 665/615 […] are then used to calculate the pEC50 values using Assay Explorer 3.3 Software (Accelrys, Inc.) by interpolation using an IP1 reference curve and subsequent sigmoidal curve fitting allowing for a variable hill slope.

human GPR40 receptor, sequence (O14842 whole entry): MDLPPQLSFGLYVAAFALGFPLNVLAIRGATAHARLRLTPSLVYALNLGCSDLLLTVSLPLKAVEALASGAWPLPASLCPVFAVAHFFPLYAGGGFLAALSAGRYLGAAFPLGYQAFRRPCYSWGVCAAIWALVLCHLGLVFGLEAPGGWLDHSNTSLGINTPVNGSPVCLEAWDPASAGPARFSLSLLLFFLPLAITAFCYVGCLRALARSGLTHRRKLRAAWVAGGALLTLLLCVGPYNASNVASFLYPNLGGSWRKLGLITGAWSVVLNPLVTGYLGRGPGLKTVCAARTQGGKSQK

Row | Compound | EC50 [µM]
1 | COc1cc(OC)c(Cl)c(-c2ccc(F)c(CNc3cnc(C4CC4C(=O)O)cn3)c2)c1Cl (stereo not shown) [Example 50] | 1.39
2 | N#CC1(c2ccccc2-c2ccc(F)c(CNc3cnc(C4CC4C(=O)O)cn3)c2)CC1 (stereo not shown) [Example 51] | 0.051
3 | COc1cc(OC)c(-c2ccc(F)c(CNc3cnc(C4CC4C(=O)O)cn3)c2)c(OC)c1 (stereo not shown) [Example 53] | 0.887
4 | O=C(O)C1CC1c1cnc(NCc2cc(-c3c(F)cc(OC4CC4)cc3F)ccc2F)cn1 (stereo not shown) [Example 54] | 0.011
5 | O=C(O)C1CC1c1cnc(NCc2cc(-c3ccc(-c4cnco4)cc3)ccc2F)cn1 (stereo not shown) [Example 56] | 0.177
6 | N#Cc1cccc(C#N)c1-c1ccc(F)c(CNc2cnc(C3CC3C(=O)O)cn2)c1 (stereo not shown) [Example 57] | > 10

Second part, the compound after the results:

Row | EC50 [µM] | Compound
7 | 0.016 | Cc1cc(OCCC(C)(C)O)cc(C)c1-c1ccc(F)c(CNc2cnc([C@H]3C[C@@H]3C(=O)O)cn2)c1 [Example 19]
8 | 0.006 | Cc1cc(-c2nnn(C)n2)cc(C)c1-c1ccc(F)c(CNc2cnc([C@H]3C[C@@H]3C(=O)O)cn2)c1 [Example 26]
9 | 0.01 | Cc1cc(C(N)=O)cc(C)c1-c1ccc(F)c(CNc2cnc(C3CC3C(=O)O)cn2)c1 (stereo not shown) [Example 49]
10 | 0.189 | Nc1cc(F)c(-c2ccc(F)c(CNc3cnc(C4CC4C(=O)O)cn3)c2)c(F)c1 (stereo not shown) [Example 55]
11 | 0.896 | COc1cc(F)c(-c2ccc(F)c(CNc3cnc(C4CC4C(=O)O)cn3)c2)c(F)c1 (stereo not shown) [Example 58]
12 | 0.024 | Cc1cccc(C)c1-c1ccc(F)c(CNc2cnc(C3CC3C(=O)O)cn2)c1 (stereo not shown) [Example 59]

Test system: not listed separately
Experiment: Aqueous solubility (buffer vs acetonitrile/water, LC-UV)
Assay type: physicochemical
Conditions: kinetic from dmso stock, buffer pH 6.8, 24 h of shaking, DMSO concentration of 2.5%
Protocol: The aqueous solubility of the compounds of the invention is determined by comparing the amount dissolved in buffer to the amount in an acetonitrile/water (1/1) solution. Starting from a 10 mM DMSO stock solution aliquots are diluted with acetonitrile/water (1/1) or buffer, respectively. After 24 h of shaking, the solutions are filtrated and analyzed by LC-UV. The amount dissolved in buffer is compared to the amount in the acetonitrile solution. Solubility is usually being measured from 0.001 to 0.125 mg/mL at a DMSO concentration of 2.5%. If more than 90% of the compound is dissolved in buffer, the value is marked with “>”.

Row | Compound | solubility at 24 h [mg/mL]
13 | Cc1cc(OCCC(C)(C)O)cc(C)c1-c1ccc(F)c2c1CC[C@H]2Oc1ccc([C@H]2C[C@@H]2C(=O)O)cc1 [Example 17 in WO 2013/178575, reference compound] | < 0.001
14 | Cc1cc(-c2nnn(C)n2)cc(C)c1-c1ccc(F)c2c1CC[C@H]2Oc1ccc([C@H]2C[C@@H]2C(=O)O)cc1 [Example 45 in WO 2013/178575, reference compound] | < 0.001

Continued, values first:

Row | solubility at 24 h [mg/mL] | Compound
15 | 0.072 (≈ 146 µM) | Cc1cc(OCCC(C)(C)O)cc(C)c1-c1ccc(F)c(CNc2cnc([C@H]3C[C@@H]3C(=O)O)cn2)c1 [Example 19]
16 | 0.047 (≈ 99.3 µM) | Cc1cc(-c2nnn(C)n2)cc(C)c1-c1ccc(F)c(CNc2cnc([C@H]3C[C@@H]3C(=O)O)cn2)c1 [Example 26]
